Results taken from patent US5004612A, “Pharmaceutical compositions comprising esters or amides as active ingredients” (priority 1987, dated 1991).
Read-outs that look alike come from different tables or passages of the source. Blank lines part the entries; values can stand above or below the compound they belong to.

Assays:
in vivo [1] = assay: in vivo; parameters: species or system male Beagle dogs; details: dog, plasma, po, read-out: BA
Method: (§1) When Experiment 1 was carried out by using Compound A and D, blood was collected after a given period of time (0, 15, 30, 60 and 120 minutes after). The concentration of the active ingredient in blood was determined with high pressure liquid chromatography, and Area Under the plasma concentration-time Curve (AUC) was calculated and then bioavailability (BA) was calculated according to the following formula by comparing with AUC in intravenous administration. [formula] [AUCid]: AUC in intraduodenal administration [AUCiv]: AUC in intravenous administration
Each one soft capsule prepared in Reference Example 1, 2, 3, 4, 5 and 6 (used only a suspension of Example 2 (compound B) in Reference Example 4,5 and 6) was administered orally with 50 ml of water to six male Beagle dogs fasted an overnight (aged one to two and weighing 10±1 kg). By the same procedures as described in Experiment 2, the concentration of the active ingredient in blood, AUC, and then BA were calculated.
^1 Comparison: Compound A or Compound B (10 mg/5 ml) of water/kg
animal body weight) was orally administered.

in vivo [2] = assay: in vivo; parameters: species or system male Sprague-Dawley rats; details: rat, BA
Method: (§2) The experiment was carried out according to the Yasuhara's method using intestinal loop in rats [see Journal of Pharmacobio-Dynamics, 2, 251 (1979)]. That is, male Sprague-Dawley rats weighing 220-260 g were fasted an overnight prior to surgery; however drinking water was readily accessible. The rats were anesthetized by sodium pentobarbital using an intraperitoneal injection of 50 mg/kg. The small intestine was exposed by a midline abdominal incision. The intestinal loop studied was used approximately 15 cm of the duodenal-jejunal site that was approximately 2 cm off the outlet of bile duct.
The suspension or solution containing active ingredients was directly administered into the loop and the both ends of the loop were closed. […] The active ingredient and the degradation products in sample were determined with high pressure liquid chromatography. […]
as §1, with “[formula] [AUCid]: AUC in intraduodenal administration [AUCiv]: AUC in intravenous administration” left out

in vivo [3] = assay: in vivo; parameters: species or system male Sprague-Dawley rats; details: rat, 5 mg/0.5 ml/animal, read-out: Remaining ratio of the active ingredient in small intestine; for remaining at 5 min: 5 minutes after; for remaining at 0.25 h: 15 minutes after
Method: The inhibitory effect of MCG on the degradation of esters of guanidinobenzoic acid in small intestine
as §2
The suspension or solution containing active ingredients was directly administered into the loop and the both ends of the loop were closed. The experiment with Compound G and I was carried out further by adding pancreatic juice and bile of other rats into the loop by cannula. After a given period of time, the loop was cut out. The contents were washed out with physiological salt solution and/or ethanol, and thereto was added a mixture of 0.1N aqueous methanesulfonic acid, 1,2-dichloroethane and isopropanol. The obtained mixture was centrifuged and the resulting supernatant was used as a sample. In the case of Compound D to H, the washings were directly used as a sample. The active ingredient and the degradation products in sample were determined with high pressure liquid chromatography.
Compound A: p-(p-guanidinobenzoyloxy)phenylacetic acid N,N-dimethylcarbamoylmethyl ester methanesulfonate [drawing 2] Compound B: p-guanidinobenzoic acid 6-amidinonaphth-2-yl ester dimethanesulfonate [drawing 3] Compound C: p-guanidinobenzoic acid methyl ester methanesulfonate [drawing 4] Compound D: 7-(3-tosylaminobicyclo[2.2.1]heptan-2-yl)-5Z-heptenoic acid ethyl ester [drawing 5] Compound E: salicylic acid ethyl ester [drawing 6] Compound F: aspirin [drawing 7] Compound G: 6-keto-16S,18S-ethano-20-ethyl-PGE1 leucine amide [drawing 8] Compound H: N-[3-[N-(4-chlorobenzyl)carbamoyl]propanoyl]-L-prolinal [drawing 9] Compound I: 7-(3-tosylaminobicyclo[2.2.1]heptan-2-yl)-5Z-heptenoic acid glycine amide [drawing 10] (wherein G is a guanidino group.)
H2 O: dissolving in the ratio of 5 mg of active ingredient/0.5 ml of water/animal.
MCM8(glyceryl monocaprylate): suspending in the ratio of 5 mg of active ingredient/0.5 ml of MCM8/animal.
MCT8(glyceryl tricaprylate): suspending in the ratio of 5 mg of active ingredient/0.5 ml of MCT8/animal.
2. 0.5 ml of physiological salt solution (referred to "SALT") for Compound D instead of water, because of its water-insoluble character.
3. 0.1 mg of Compound G were used because of its strong pharmacological effect, and isotonic phosphate buffer solution (referred to "PHOS") (pH 6.5) instead of water was used because of its water-insoluble character.

[4] = Water solubility (remark on administration); format: physicochemical

bioavailability (in vivo [1]; 10 mg/kg, Comparison A (10 mg/5 ml of water/kg body weight)): 6.3 ± 2.4%
bioavailability (in vivo [1]; Reference Example 1 (soft capsule of Example 1 suspension)): 10.9 ± 4.3%
bioavailability (in vivo [1]; Reference Example 2 (enteric-coated soft capsule, carboxymethylethyl cellulose)): 18.4 ± 7.3%
bioavailability (in vivo [1]; Reference Example 3 (enteric-coated soft capsule, hydroxypropylmethyl cellulose acetate succinate)): 17.2 ± 11.5%
bioavailability (in vivo [2]): 3%
Compound: CN(C)C(=O)COC(=O)Cc1ccc(OC(=O)c2ccc(NC(=N)N)cc2)cc1.CS(=O)(=O)O [Compound A, p-(p-guanidinobenzoyloxy)phenylacetic acid N,N-dimethylcarbamoylmethyl ester methanesulfonate]

remaining at 5 min (in vivo [3]; H2O (COMPARISON)): 68.8 ± 1.7%
remaining at 0.25 h (in vivo [3]; H2O (COMPARISON)): 27.5 ± 5.2%
remaining at 5 min (in vivo [3]; MCM8 (INVENTION)): 90 ± 15.6%
remaining at 0.25 h (in vivo [3]; MCM8 (INVENTION)): 70.5 ± 12.1%
remaining at 5 min (in vivo [3]; MCT8 (INVENTION)): 80 ± 3.2%
remaining at 0.25 h (in vivo [3]; MCT8 (INVENTION)): 60.8 ± 7.5%
bioavailability (in vivo [1]; 10 mg/kg, Comparison B (10 mg/5 ml of water/kg body weight)): 1.7 ± 1.2%
bioavailability (in vivo [1]; Reference Example 4 (soft capsule of Example 2 suspension)): 3.2 ± 1.7%
bioavailability (in vivo [1]; Reference Example 5 (enteric-coated soft capsule, as Reference Example 2)): 5 ± 2.5%
bioavailability (in vivo [1]; Reference Example 6 (enteric-coated soft capsule, as Reference Example 3)): 5.1 ± 2.1%
Compound: CS(=O)(=O)O.CS(=O)(=O)O.N=C(N)Nc1ccc(C(=O)Oc2ccc3cc(C(=N)N)ccc3c2)cc1 [Compound B, p-guanidinobenzoic acid 6-amidinonaphth-2-yl ester dimethanesulfonate]

solubility in water [4]: poor solubility
Compound: COC(=O)c1ccc(NC(=N)N)cc1.CS(=O)(=O)O [Compound C, p-guanidinobenzoic acid methyl ester methanesulfonate]

solubility in water [4]: water-insoluble
Compound: CCOC(=O)CCC/C=C\CC1C2CCC(C2)C1NS(=O)(=O)c1ccc(C)cc1 (stereo not drawn) [Compound D, 7-(3-tosylaminobicyclo[2.2.1]heptan-2-yl)-5Z-heptenoic acid ethyl ester]

solubility in water [4]: water-insoluble
Compound: CCCC[C@H]1CC[C@H]([C@H](O)/C=C/[C@H]2[C@H](O)CC(=O)[C@@H]2CC(=O)CCCCC(=O)NC(CC(C)C)C(=O)O)C1 (stereo partly drawn) [Compound G, 6-keto-16S,18S-ethano-20-ethyl-PGE1 leucine amide]
